Experimental data taken from US9708311B2, “Benzimidazole derivatives as EP4 antagonists” (BAYER PHARMA AKTIENGESELLSCHAFT, priority 2012, dated 2017).
pIC50: −log10 of the molar value. Like-named read-outs stand apart in the source and are kept apart here.

What was measured:
[1] = target: human EP4 receptor (Homo sapiens (Human), UniProt P35408); test: Test for antagonism of the human EP4 receptor signal (cAMP HTRF); assay type: cell-based
In short: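 Antagonism of PGE2-stimulated cAMP formation in hEP4-R cells with IBMX present. After lysis, cAMP measured by competitive TR-FRET (Eu cryptate anti-cAMP antibody vs cAMP-d2), 20 min at room temperature. Read-out is the 665/620 nm emission ratio; antagonism appears as restored FRET signal.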

[2] = test system: macrophages in the peritoneal fluid; test: Flow cytometry of peritoneal lavage cells (macrophage activation); assay type: in vivo; conditions: mouse endometriosis model, p.o., vs vehicle control, p<0.001
Protocol: For the obtainment of the cells from the peritoneum, 3 ml of cold PBS (phosphate buffered saline) were injected into the peritoneum of the dead animal and removed again after gentle massage of the abdomen. The cells from this peritoneal lavage were spun down at 1400 rpm for 2 min and taken up again in 500 μl of PBS containing 2% FCS (fetal calf serum). 100 μl of this cell suspension were used for each stain with different antibody-fluorochrome conjugate mixes. The cells were spun down for this purpose in 96 hole plates again and resuspended in 50 μl of an antibody solution in the 1:300 diluted anti CD11b-Pacific Blue (eBioscience), 1:200 diluted anti F4/80-PE (eBioscience), 1:200 diluted anti Gr1-APC-Cy7 (BD Pharmigen), 1:400 diluted anti CD11c-PE-Cy7 (BD Pharmigen) and 1:400 diluted anti MHCII-FITC (BD Pharmigen) and stored on ice in the dark for 20 min. Subsequently, 150 μl of PBS containing 2% FCS were added and the cells were once again centrifuged down at 1400 rpm for 2 min. The 200 μl of supernatant were discarded and the cells were washed with 200 μl of PBS containing 2% FCS and once again centrifuged off.
Subsequently, they were taken up in 200 μl of PBS containing 2% FCS and 1:5000 diluted 5 mg/ml DAPI (Sigma) and the fluorescence intensity of the individual fluorochromes per cell was measured with a FACS Canto II flow cytometer. […]

[3] = test system: endometrial lesions; test: Syngeneic mouse endometriosis model (preventive); assay type: in vivo; conditions: 28 days
Protocol: The syngeneic induction of endometriosis in mice is a common animal model for testing the efficacy of substances for the treatment of endometriosis. Endometriosis is induced experimentally by transplantation of murine uterus fragments of a donor mouse of the same strain into the abdominal cavity of the recipient mouse. Female mice of the balb/c strain were used. The cycle of the mouse is determined by means of a vaginal smear. Donor animals which are in oestrus are used exclusively. The donor animals are sacrificed and the uterine horns are removed and subsequently cut open longitudinally. From the uteri, using a punch 2 mm bioptates are punched out, which are subsequently sewn into the recipient animal. The recipient animals are anaesthetised and subjected to a laparotomy. During the intervention, 6 uterus punchings of a donor mouse are sewn onto the parietal peritoneum of the recipient mouse. […] After 28 days, the animals are opened up in a final laparotomy and the lesion sizes are determined. The grown lesions are photographically recorded and the area is measured by means of AxioVision Software. […] In the s.c. approach (FIG. 1), the substance according to the invention (Example 4) was tested in 4 different dose schemes and the lesion size was assessed in comparison to the animals treated with vehicle. […]

[4] = cells expressing hEP4, PGE2 at EC80 (0.4 nM), cAMP TR-FRET, read-out: Antagonism hEP4 IC50

human EP4 receptor, sequence (P35408 whole entry): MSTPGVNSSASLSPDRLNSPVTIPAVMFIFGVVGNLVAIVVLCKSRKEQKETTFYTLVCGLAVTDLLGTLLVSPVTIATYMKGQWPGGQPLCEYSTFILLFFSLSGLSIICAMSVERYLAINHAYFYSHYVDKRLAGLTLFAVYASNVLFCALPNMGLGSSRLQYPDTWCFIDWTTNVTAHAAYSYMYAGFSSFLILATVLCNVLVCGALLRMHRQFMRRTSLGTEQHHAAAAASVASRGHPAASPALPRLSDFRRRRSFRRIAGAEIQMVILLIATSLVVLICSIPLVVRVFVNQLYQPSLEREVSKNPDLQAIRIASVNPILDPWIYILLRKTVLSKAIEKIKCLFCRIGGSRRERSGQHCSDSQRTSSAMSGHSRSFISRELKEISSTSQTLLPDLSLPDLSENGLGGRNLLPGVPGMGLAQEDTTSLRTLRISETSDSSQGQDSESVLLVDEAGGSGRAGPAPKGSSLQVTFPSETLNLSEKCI

Row | SMILES | pIC50 [1, 4] | other results
1 | COCCn1c(-c2ccc3c(c2)c2ccccc2n3CC2CCC2)nc2cc(C(=O)O)ccc21 [Example 124, 2-[9-(Cyclobutylmethyl)-9H-carbazol-3-yl]-1-(2-methoxyethyl)-1H-benzimidazole-5-carboxylic acid] | 7.03 | 
2 | CCn1c2ccccc2c2cc(-c3nc4cc(C(=O)NS(=O)(=O)Cc5ccccc5)ccc4n3CCOC)ccc21 [Example 55, N-(Benzylsulphonyl)-2-(9-ethyl-9H-carbazol-3-yl)-1-(2-methoxyethyl)-1H-benzimidazole-5-carboxamide] | 6.93 | 
3 | CCn1c2ccccc2c2cc(-c3nc4cc(-c5n[nH]c(=O)o5)ccc4n3CCOC)ccc21 [Example 106, 5-[2-(9-Ethyl-9H-carbazol-3-yl)-1-(2-methoxyethyl)-1H-benzimidazol-5-yl]-1,3,4-oxadiazol-2(3H)-one] | 7.36 | 
4 | CCn1c2ccccc2c2cc(-c3nc4cc(C(=O)NS(=O)(=O)Cc5ccc(Cl)cc5)ccc4n3CCOC)ccc21 [Example 64, N-[(4-Chlorobenzyl)sulphonyl]-2-(9-ethyl-9H-carbazol-3-yl)-1-(2-methoxyethyl)-1H-benzimidazole-5-carboxamide] | 6.86 | 
5 | CCn1c2ccccc2c2cc(-c3nc4cc(C(=O)NCCOC)ccc4n3CC3CC3)ccc21 [Example 21, 1-(Cyclopropylmethyl)-2-(9-ethyl-9H-carbazol-3-yl)-N-(2-methoxyethyl)-1H-benzimidazole-5-carboxamide] | 6.99 | 
6 | CCn1c2ccccc2c2cc(-c3nc4cc(C(=O)NS(=O)(=O)c5ccccc5OC)ccc4n3CCOC)ccc21 [Example 52, 2-(9-Ethyl-9H-carbazol-3-yl)-1-(2-methoxyethyl)-N-[(2-methoxyphenyl)sulphonyl]-1H-benzimidazole-5-carboxamide] | 7.44 | 
7 | CCCn1c2ccccc2c2cc(-c3nc4cc(C(=O)O)ccc4n3CC3CC3)ccc21 [Example 120, 1-(Cyclopropylmethyl)-2-(9-propyl-9H-carbazol-3-yl)-1H-benzimidazole-5-carboxylic acid] | 7.20 | 
8 | CCOC(=O)c1ccc2c(c1)nc(-c1ccc3c(c1)c1ccccc1n3CC)n2CCCOC [Example 99, Ethyl 2-(9-ethyl-9H-carbazol-3-yl)-1-(3-methoxypropyl)-1H-benzimidazole-5-carboxylate] | 5.77 | 
9 | CCn1c2ccccc2c2cc(-c3nc4cc(C(=O)N(C)C)ccc4n3CCOC)ccc21 [Example 83, 2-(9-Ethyl-9H-carbazol-3-yl)-1-(2-methoxyethyl)-N,N-dimethyl-1H-benzimidazole-5-carboxamide] | 6.91 | 

Now from value to compound, other results behind:

Row | pIC50 [1, 4] | SMILES | other results
10 | 7.94 | CCn1c2ccccc2c2cc(-c3nc4c(F)c(C(=O)O)ccc4n3CC3CC3)ccc21 [Example 115, 1-(Cyclopropylmethyl)-2-(9-ethyl-9H-carbazol-3-yl)-4-fluoro-1H-benzimidazole-5-carboxylic acid] | 
11 | 5.51 | C=CCn1c(-c2ccc3c(c2)c2ccccc2n3CC)nc2cc(C(=O)OC)ccc21 [Example 1, Methyl 1-allyl-2-(9-ethyl-9H-carbazol-3-yl)-1H-benzimidazole-5-carboxylate] | 
12 | 5.84 | CCn1c2ccccc2c2cc(-c3nc4c(Cl)c(C(=O)OC)ccc4n3CC3CC3)ccc21 [Example 7, Methyl 4-chloro-1-(cyclopropylmethyl)-2-(9-ethyl-9H-carbazol-3-yl)-1H-benzimidazole-5-carboxylate] | 
13 | 7.62 | CCn1c2ccccc2c2cc(-c3nc4cc(C(=O)NS(C)(=O)=O)ccc4n3CCOC)ccc21 [Example 15, 2-(9-Ethyl-9H-carbazol-3-yl)-1-(2-methoxyethyl)-N-(methylsulphonyl)-1H-benzimidazole-5-carboxamide] | 
14 | 8.25 | CCn1c2ccccc2c2cc(-c3nc4cc(C(=O)O)ccc4n3CCOC)ccc21 [Example 4, 2-(9-Ethyl-9H-carbazol-3-yl)-1-(2-methoxyethyl)-1H-benzimidazole-5-carboxylic acid] | pIC50 ([1]; antagonism test Example 3.2.1, read-out: IC50 value at the EP4 receptor (antagonism test)): ~8.22; number of activated macrophages in the peritoneal fluid (FACS) [2]: highly significant reduced number of activated macrophages; reduction of the endometrial lesions, oral administration ([3]; p.o., vs control, p<0.01): significant reduction of the endometrial lesions; reduction of the endometrial lesions, subcutaneous administration ([3]; s.c., 0.4, 3, 10 and 50 mg/kg/day, vs vehicle): significant reduction of the endometrial lesions
15 | 7.37 | CCn1c2ccccc2c2cc(-c3nc4cc(C(=O)NCCOC)ccc4n3CCOC)ccc21 [Example 31, 2-(9-Ethyl-9H-carbazol-3-yl)-N,1-bis(2-methoxyethyl)-1H-benzimidazole-5-carboxamide] | 
16 | 6.25 | CCn1c2ccccc2c2cc(-c3nc4cc(C(=O)O)ccc4n3C[C@H](O)CO)ccc21 [Example 138, 1-[(2S)-2,3-Dihydroxypropyl]-2-(9-ethyl-9H-carbazol-3-yl)-1H-benzimidazole-5-carboxylic acid] | 
17 | 7.87 | CCn1c2ccccc2c2cc(-c3nc4cc(-c5nnn[nH]5)ccc4n3CCOC)ccc21 [Example 45, 9-Ethyl-3-[1-(2-methoxyethyl)-5-(1H-tetrazol-5-yl)-1H-benzimidazol-2-yl]-9H-carbazole] | 
18 | 6.13 | CCn1c2ccccc2c2cc(-c3nc4cc(C(=O)O)ccc4n3C(C)C)ccc21 [Example 93, 2-(9-Ethyl-9H-carbazol-3-yl)-1-isopropyl-1H-benzimidazole-5-carboxylic acid] | 
19 | 6.95 | CCn1c2ccccc2c2cc(-c3nc4cc(C(=O)O)ccc4n3CCO)ccc21 [Example 91, 2-(9-Ethyl-9H-carbazol-3-yl)-1-(2-hydroxyethyl)-1H-benzimidazole-5-carboxylic acid] | 
20 | 7.84 | CCn1c2ccccc2c2cc(-c3nc4cc(C(=O)O)ccc4n3CCOC(F)(F)F)ccc21 [Example 130, 2-(9-Ethyl-9H-carbazol-3-yl)-1-[2-(trifluoromethoxy)ethyl]-1H-benzimidazole-5-carboxylic acid] | 
